From US11078168B2, “Substituted N-hydroxyamidinoheterocycles as modulators of indoleamine 2,3-dioxygenase” (PHENEX DISCOVERY VERWALTUNGS-GMBH, priority 2016, dated 2021)

Biological target: T1, Indoleamine 2,3-dioxygenase (Homo sapiens, UniProt P14902)
T1 construct: endogenous in cells; host or cells: SKOV-3 (ATCC HTB-77), stimulated with interferon gamma
Experiment: SKOV-3 cellular Indoleamine 2,3-dioxygenase assay
Conditions: SKOV-3 cells, 50 ng/ml Interferon gamma, 100 μM L-Tryptophan, 24 hours, N-Formylkynurenin fluorescence detection; read-out: cell based activity
Procedure: SKOV-3 cellular Indoleamine 2,3-dioxygenase assay
SKOV-3 cells were obtained from the American Type Culture Collection (ATCC® HTB-77™) and maintained in McCoy's medium (Pan Biotech) supplemented with 10% fetal bovine serum and 1% Penicilin/Streptomycin. Cells were kept at 37° C. in a humidified incubator with 5% CO2. For assay preparation, cells were seeded at a density of 2*10^5/ml into black clear bottom 96 well plates in 100 μl medium/well supplemented with 50 ng/ml Interferon gamma (eBioscience, Thermo Fisher Scientific). After cells fully adhered to the plate, dilution series of compounds were added in medium containing additional L-Tryptophan to a final L-Tryptophan concentration of 100 μM. The cells were incubated for 24 hours. Detection of produced N-Formylkynurenin was performed by addition of 3-Methylpiperidine to a final concentration of 200 mM. The plates were sealed and heated to 65° C. for 20 minutes in a water bath. After cooling the fluorescence of each well was recorded with a Victor™X4 (PerkinElmer) plate reader at an emission wavelength of 535 nm and excitation at 405 nm (Tomek et al.; Anal Bioanal Chem (2013) 405:2515-2524., Tomek et al.; Biochim Biophys Acta. 2015 September; 1850(9):1772-80).

T1 sequence (P14902 whole entry): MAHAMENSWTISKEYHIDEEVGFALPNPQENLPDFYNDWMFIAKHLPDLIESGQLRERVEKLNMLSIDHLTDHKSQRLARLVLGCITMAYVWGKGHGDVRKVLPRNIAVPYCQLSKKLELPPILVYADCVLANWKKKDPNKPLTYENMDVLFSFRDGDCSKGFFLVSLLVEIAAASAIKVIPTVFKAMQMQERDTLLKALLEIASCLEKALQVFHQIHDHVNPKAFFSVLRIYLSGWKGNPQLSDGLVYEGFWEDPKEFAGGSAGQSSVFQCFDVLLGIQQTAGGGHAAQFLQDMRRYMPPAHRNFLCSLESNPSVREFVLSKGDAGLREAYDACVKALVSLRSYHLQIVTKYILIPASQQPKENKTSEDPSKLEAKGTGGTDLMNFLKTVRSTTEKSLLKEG

Row | IC50 [nM] | Compound
1 | > 1000 | CS(=N)(=O)c1nonc1C(=NO)Nc1ccc(F)c(Br)c1 (stereo not drawn) [Example 106, N-(3-Bromo-4-fluorophenyl)-N′-hydroxy-4-(S-methylsulfonimidoyl)-1,2,5-oxadiazole-3-carboximidamide]
2 | 100 to 1000 | Cn1nc(C(=O)NCCSc2nonc2C(=NO)Nc2ccc(F)c(C(F)F)c2)[nH]c1=O [117/17]
3 | 100 to 1000 | C[S+]([O-])c1nonc1C(=NO)Nc1ccc(F)c(Br)c1 (stereo not drawn) [Example 105, N-(3-Bromo-4-fluorophenyl)-N′-hydroxy-4-(methylsulfinyl)-1,2,5-oxadiazole-3-carboximidamide]
4 | < 100 | Cn1nc(C(=O)NCCSc2nonc2C(=NO)Nc2ccc(F)c(Cl)c2)[nH]c1=O [117/3]
5 | < 100 | CS(=O)(=O)NCCSc1nonc1/C(=N/O)Nc1ccc(F)c(Br)c1 [Example 100, N-(3-Bromo-4-fluorophenyl)-N′-hydroxy-4-((2-(methylsulfonamido)ethyl)thio)-1,2,5-oxadiazole-3-carboximidamide]
6 | < 100 | CS(=O)(=O)NCCOc1nonc1C(=NO)Nc1ccc(F)c(Cl)c1 [1/1]
7 | < 100 | CS(=N)(=O)NCCSc1nonc1C(=NO)Nc1ccc(F)c(Cl)c1 (stereo not drawn) [Example 120]
8 | < 100 | Cc1nnc(NCCSc2nonc2C(=NO)Nc2ccc(F)c(C(F)F)c2)o1 [Example 111, N-(3-(Difluoromethyl)-4-fluorophenyl)-N′-hydroxy-4-((2-((5-methyl-1,3,4-oxadiazol-2-yl)amino)ethyl)thio)-1,2,5-oxadiazole-3-carboximidamide]
9 | < 100 | CS(=O)(=O)CCC(=O)NCCSc1nonc1/C(=N/O)Nc1ccc(F)c(Br)c1 [107/41]
10 | < 100 | NS(=O)(=O)c1ccc(C(=O)NCCSc2nonc2C(=NO)Nc2ccc(F)c(Cl)c2)cc1 [117/8]
11 | 100 to 1000 | CS(=O)(=O)CCCOc1nonc1C(=NO)Nc1ccc(F)c(Cl)c1 [20/1, N-(3-Chloro-4-fluorophenyl)-N′-hydroxy-4-(3-(methylsulfonyl)propoxy)-1,2,5-oxadiazole-3-carboximidamide]
12 | < 100 | NS(=O)(=O)NCC(=O)NCCSc1nonc1C(=NO)Nc1ccc(F)c(C(F)(F)F)c1 [128/1]
13 | < 100 | NS(=O)(=O)CC(=O)NCCSc1nonc1/C(=N/O)Nc1ccc(F)c(C(F)F)c1 [117/12]
14 | < 100 | CS(=N)(=O)NCCSc1nonc1C(=NO)Nc1ccc(F)c(C(F)F)c1 (stereo not drawn) [120/1]
15 | < 100 | NC(=O)CS(=O)(=O)NCCSc1nonc1C(=NO)Nc1cccc(C(F)F)c1 [119/4]

The next lines start with the compound.

Row | Compound | IC50 [nM]
16 | NS(=O)(=O)CC(=O)NCCOc1nonc1C(=NO)Nc1ccc(F)c(Cl)c1 [9/14] | 100 to 1000
17 | O=C(CC(O)(C(F)(F)F)C(F)(F)F)NCCSc1nonc1C(=NO)Nc1ccc(F)c(C(F)(F)F)c1 [107/21] | < 100
18 | Nc1c(NCCOc2nonc2C(=NO)Nc2cccc(C(F)F)c2)c(=O)c1=O [2/7] | 100 to 1000
19 | O=C(NCCOc1nonc1C(=NO)Nc1ccc(F)c(Cl)c1)C1CC1 [9/3] | < 100
20 | O=C(NCCSc1nonc1C(=NO)Nc1ccc(F)c(Cl)c1)c1ccnc2nn[nH]c12 [117/2] | > 1000
21 | NC(C(=O)NCCOc1nonc1C(=NO)Nc1ccc(F)c(Cl)c1)C(F)(F)F (stereo not drawn) [3/4] | < 100
22 | Nc1nnc(NCCOc2nonc2C(=NO)Nc2ccc(F)c(Cl)c2)[nH]1 [Example 15, 4-(2-((5-Amino-4H-1,2,4-triazol-3-yl)amino)ethoxy)-N-(3-chloro-4-fluorophenyl)-N′-hydroxy-1,2,5-oxadiazole-3-carboximidamide] | 100 to 1000
23 | [O-][S+](CC(F)(F)F)c1nonc1C(=NO)Nc1ccc(F)c(Br)c1 (stereo not drawn) [109/3] | > 1000
24 | N[C@@H](CC(=O)NCCOc1nonc1C(=NO)Nc1ccc(F)c(Cl)c1)C(=O)O [3/1] | 100 to 1000
25 | O=C(NCCSc1nonc1C(=NO)Nc1ccc(F)c(C(F)(F)F)c1)C1(O)CNC1 [123/1] | 100 to 1000
26 | CC(C)(C)OC(=O)NC1(CC(=O)NCCSc2nonc2C(=NO)Nc2ccc(F)c(C(F)F)c2)COC1 [117/20] | < 100
27 | O=C(NCCOc1nonc1C(=NO)Nc1ccc(F)c(Cl)c1)C1(O)CC1 [9/12] | 100 to 1000
